This passage reports IC50 results from patent publication US20230339851A1, “CXCR6 SULFONAMIDE COMPOUNDS” (CHEMOCENTRYX, INC., priority 2022, published 2023).

Structures are written as SMILES. Bounds are passed on as bounds.

This assay addresses T1, human CXCR6 (Homo sapiens, UniProt O00574).
T1 construct: expressed in transfected cells
As to the kind of experiment: Radioligand Binding Assay (125I-CXCL16 displacement). Conditions: L1.2 cells stably transfected with human CXCR6 cDNA, 0.1 nM 125I-CXCL16, 4° C., three-hour incubation; read-out: Potency (IC50). In a few lines: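 L1.2 cells stably expressing human CXCR6 incubated 3 h at 4 °C in HBSS/0.1% BSA with 0.1 nM 125I-CXCL16 and graded compound concentrations. Bound radioactivity collected by filtration and counted; IC50 from 3-parameter nonlinear regression.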

T1 sequence (O00574 whole entry): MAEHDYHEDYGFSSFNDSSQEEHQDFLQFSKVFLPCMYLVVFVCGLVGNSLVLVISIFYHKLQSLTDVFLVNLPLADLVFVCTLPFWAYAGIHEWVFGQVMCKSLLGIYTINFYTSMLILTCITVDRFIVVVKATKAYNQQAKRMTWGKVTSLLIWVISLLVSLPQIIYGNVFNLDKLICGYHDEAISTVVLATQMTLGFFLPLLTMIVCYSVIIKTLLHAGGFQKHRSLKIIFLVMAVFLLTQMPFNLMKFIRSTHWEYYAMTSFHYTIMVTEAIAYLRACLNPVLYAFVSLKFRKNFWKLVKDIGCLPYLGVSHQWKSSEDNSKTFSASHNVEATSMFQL

For the molecule `Cn1nccc1C(=O)Nc1ccc(S(=O)(=O)Nc2cccc(C(F)(F)F)c2)c(OC(F)(F)F)c1` [Example 1.461], the IC50 fell in the range of 750 to 2000 nM.

Turning to `Cc1cc(NC(=O)c2cncn2C)ccc1S(=O)(=O)Nc1cccc(C(F)(F)F)c1` [Example 1.048], the IC50 was 2000 to 20000 nM.

For `CCOc1cc(NC(=O)c2ccn(C)c(=O)c2C)ccc1S(=O)(=O)Nc1cccc(OC(F)(F)F)c1` [Example 1.332], the IC50 was no more than 200 nM.

On to `CCOc1cc(NC(=O)CCOC)ccc1S(=O)(=O)Nc1cccc(OC(F)(F)F)c1` [Example 1.186], for which the IC50 lay within 750 to 2000 nM.

On to `Cc1cc(NC(=O)c2cnoc2C)ccc1S(=O)(=O)Nc1cccc(C(F)(F)F)c1` [Example 1.255], for which the concentration for half-maximal inhibition (IC50) is 200 to 750 nM.

Take `CCOc1cc(NC(=O)CC(O)CO)ccc1S(=O)(=O)Nc1cccc(OC(F)(F)F)c1` (stereo not drawn) [Example 1.387]: the IC50 lay within 750 to 2000 nM.

Regarding `CCOc1cc(NC(C)=O)ccc1S(=O)(=O)Nc1cccc(C(F)(F)F)c1` [Example 1.212], the IC50 lay within 2000 to 20000 nM.

`CCOc1cc(NC(=O)[C@H](O)c2ccccc2)ccc1S(=O)(=O)Nc1cccc(OC(F)(F)F)c1` [Example 1.547]: the IC50 lay in the range of 200 to 750 nM.

As to `CC(C)[C@H](CO)C(=O)Nc1ccc(S(=O)(=O)Nc2cccc(OC(F)(F)F)c2)c(C#N)c1` [Example 1.482], the IC50 was no more than 200 nM.

Turning to `CCOc1cc(NC(=O)[C@@H]2CCCCC[C@H]2O)ccc1S(=O)(=O)Nc1cccc(OC(F)(F)F)c1` [Example 1.562], the IC50 lay in the range of 200 to 750 nM.

`CCOc1cc(NC(=O)C2CCCC(=O)C2)ccc1S(=O)(=O)Nc1cccc(OC(F)(F)F)c1` (stereo not drawn) [Example 1.269]: the IC50 fell in the range of 200 to 750 nM.

For the molecule `CCOc1cc(NC(=O)[C@H]2CCCC[C@@H]2O)ccc1S(=O)(=O)Nc1cccc(OC(F)(F)F)c1` [Example 1.169], the IC50 fell in the range of 750 to 2000 nM.

For the molecule `CCOc1cc(NC(=O)[C@@H](NC(C)=O)c2ccccc2)ccc1S(=O)(=O)Nc1cccc(OC(F)(F)F)c1` [Example 1.313], the IC50 was no more than 200 nM.

`CCOc1cc(NC(=O)[C@@H](CO)c2ccccc2)ccc1S(=O)(=O)Nc1ccc(Cl)c(Cl)c1` [Example 1.175]: the IC50 fell in the range of 200 to 750 nM.

Take `Cc1cc(NC(=O)c2ccc(Cl)cc2)ccc1S(=O)(=O)Nc1cccc(C(F)(F)F)c1` [Example 1.407]: the IC50 was 750 to 2000 nM.

In the case of `CCOc1cc(NC(=O)c2ccc(N(C)C)cc2)ccc1S(=O)(=O)Nc1cccc(OC(F)(F)F)c1` [Example 1.315], the IC50 fell in the range of 750 to 2000 nM.

On to `CC(=O)Nc1cc(C)c(S(=O)(=O)Nc2cccc(OC(F)(F)F)c2)c(F)c1` [Example 1.444], for which the IC50 lay in the range of 2000 to 20000 nM.

As for `CCOc1cc(NC(=O)[C@@H](CO)C(C)C)ccc1S(=O)(=O)Nc1cccc(C(C)(C)C)c1` [Example 1.017], the IC50 is no more than 200 nM.

As to `CCOc1cc(NC(=O)C2CCN(C)C(=O)C2)ccc1S(=O)(=O)Nc1cccc(OC(F)(F)F)c1` (stereo not drawn) [Example 1.316], the IC50 was 750 to 2000 nM.

For `Cc1cc(NC(=O)c2ccn(C)c(=O)c2)ccc1S(=O)(=O)Nc1cccc(OC(F)(F)F)c1` [Example 1.100], the IC50 was 200 to 750 nM.

Consider `CCOc1cc(NC(=O)C(C)O)ccc1S(=O)(=O)Nc1cccc(OC(F)(F)F)c1` (stereo not drawn) [Example 1.532], for which the IC50 fell in the range of 200 to 750 nM.

In the case of `CCOc1cc(NC(=O)[C@@H](O)C(C)C)ccc1S(=O)(=O)Nc1ccc(Cl)c(C)c1` [Example 1.223], the IC50 was no more than 200 nM.

`Cc1cc(NC(=O)c2cccc(C(F)(F)F)c2)ccc1S(=O)(=O)Nc1cccc(C(F)(F)F)c1` [Example 1.443]: the IC50 is 2000 to 20000 nM.

For `Cn1nccc1C(=O)Nc1ccc(S(=O)(=O)Nc2cccc(C(F)(F)F)c2)c(Cl)c1` [Example 1.141], the IC50 was in the range of 200 to 750 nM.

As to `CCOc1cc(NC(=O)[C@@H](O)C2CCCC2)ccc1S(=O)(=O)Nc1cccc(OC(F)(F)F)c1` [Example 1.416], the IC50 was no more than 200 nM.

Consider `CCOc1cc(NC(=O)[C@@H](NC(C)=O)C(C)C)ccc1S(=O)(=O)Nc1ccc(C)c(OC(F)(F)F)c1` [Example 1.275], for which the IC50 is no more than 200 nM.

`CCOc1cc(NC(=O)c2ccc(=O)n(C)c2)ccc1S(=O)(=O)Nc1cccc(OC(F)(F)F)c1` [Example 1.515]: the 50% inhibitory concentration (IC50) was 750 to 2000 nM.

In the case of `CCOc1cc(NC(=O)c2ccncc2)ccc1S(=O)(=O)Nc1cccc(OC(F)(F)F)c1` [Example 1.366], the IC50 is no more than 200 nM.

For `CCOc1cc(NC(=O)[C@H]2CC(C)=C(C)C[C@@H]2C(=O)O)ccc1S(=O)(=O)Nc1cccc(OC(F)(F)F)c1` [Example 1.096], the half-inhibitory concentration (IC50) was no more than 200 nM.

`CCOc1cc(NC(=O)C(OC)c2ccccc2)ccc1S(=O)(=O)Nc1cccc(OC(F)(F)F)c1` (stereo not drawn) [Example 1.399]: the IC50 was no more than 200 nM.

For the molecule `CCOc1cc(NC(=O)[C@H]2CCOC[C@H]2COC)ccc1S(=O)(=O)Nc1cccc(OC(F)(F)F)c1` [Example 1.499], the IC50 is no more than 200 nM.

`CCOc1cc(NC(=O)[C@H](CO)C(C)C)ccc1S(=O)(=O)Nc1cccc(OC(F)(F)F)c1` [Example 1.139]: the IC50 was no more than 200 nM.

In the case of `CCOc1cc(NC(=O)[C@@H](CO)c2ccccc2)ccc1S(=O)(=O)Nc1cccc(Cl)c1C(F)(F)F` [Example 1.350], the IC50 is 2000 to 20000 nM.

In general, IC50 refers to the concentration at which inhibition is half-maximal.
